Assay results from patent publication US8933290B2, “Mesh implant” (Sofradim Production SAS, priority 2007, dated 2015).

Test system: classical pathway of the complement system
Assay: Anti-complement activity, CH50 hemolytic assay in total human serum
Format: biochemical
Settings: in solution, sheep erythrocytes
Procedure: The anti-complement activity of fucans was tested via a CH50 test, a standard hemolytic assay in total human serum. Complement activation in human serum was induced by the introduction of sheep erythrocytes coated with rabbit antibodies and then recognized as foreign elements. […] The amount of released hemoglobin was then determined by an optical density (OD) measurement at about 414 nm. The human serum dilution was adjusted for a known amount of erythrocytes, in order to lyse about 50% of the red blood cells (CH50). In order to check the impact of the fucan on the complement activation in solution, the fucan was added with the sheep erythrocytes. […] Heparin (heparin […] 173 UI/mg, Choay-Sanofi) and fucan […] RED synthesized in the Laboratoire de Recherche sur les Macromolecules (LRM, CNRS UMR 7540, France) were also tested instead of fucan.

heparin [heparin H108]
IC50 (median inhibition concentration), anti-complement activity: about 30 μg/mL
